Reference: the supplement of paper PMC10307832

Assays:
Assay in all cases: relative viability (nuclei count vs DMSO), 5 days (fraction); higher = more cells survive
[1] = tested on: NCI-H1648
Method in brief: (§1)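 Cells from lung cancer lines were seeded into 1536-well plates and, one day later, dosed by pin tool. Treatments were either a single drug or a fixed dose of an anchor drug with five library-drug doses (not always all listed) in √10 steps. After 5 days, nuclei were stained in a one-step fixation (final 0.05% Triton X-100, 1% formaldehyde, 1 ug/ml Hoechst) and counted on 4× images, and relative viability is the treated-to-vehicle nuclei ratio, as the median of duplicate plates.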

[2] = tested on: NCI-H2342
Method in brief: as §1

[3] = tested on: NCI-H1563
Method in brief: as §1

[4] = tested on: NCI-H522
Method in brief: as §1

[5] = tested on: SW 900
Method in brief: as §1

[6] = tested on: A549
Method in brief: as §1

[7] = tested on: IA-LM
Method in brief: as §1

[8] = tested on: NCI-H1299
Method in brief: as §1

[9] = tested on: NCI-H1703
Method in brief: as §1

[10] = tested on: Calu-6
Method in brief: as §1

[11] = tested on: EBC-1
Method in brief: as §1

## O=c1[nH]c2ccccc2n1C1CCN(CCCC(c2ccc(F)cc2)c2ccc(F)cc2)CC1 [Pimozide] + Nc1nc2[nH]cc(CCc3ccc(C(=O)N[C@@H](CCC(=O)O)C(=O)O)cc3)c2c(=O)[nH]1 [Pemetrexed] (partner 0.2 µM)
[1]; first compound 0.08 µM
  relative viability: 0.818
[1]; first compound 0.8 µM
  relative viability: 0.573
[1]; first compound 2.53 µM
  relative viability: 0.673
[1]; first compound 8 µM
  relative viability: 0.612
[2]; first compound 0.08 µM
  relative viability: 0.796
[2]; first compound 0.253 µM
  relative viability: 0.757
[2]; first compound 0.8 µM
  relative viability: 0.634
[2]; first compound 2.53 µM
  relative viability: 0.749
[2]; first compound 8 µM
  relative viability: 0.752
[3]; first compound 0.08 µM
  relative viability: 0.606
[3]; first compound 0.253 µM
  relative viability: 0.849
[3]; first compound 0.8 µM
  relative viability: 0.745
[3]; first compound 2.53 µM
  relative viability: 0.781
[3]; first compound 8 µM
  relative viability: 0.734
[4]; first compound 0.08 µM
  relative viability: 1.04
[4]; first compound 0.253 µM
  relative viability: 0.848
[4]; first compound 0.8 µM
  relative viability: 0.832
[4]; first compound 2.53 µM
  relative viability: 0.818
[4]; first compound 8 µM
  relative viability: 0.904
[5]; first compound 0.08 µM
  relative viability: 0.483
[5]; first compound 0.253 µM
  relative viability: 0.465
[5]; first compound 2.53 µM
  relative viability: 0.447
[5]; first compound 8 µM
  relative viability: 0.418

## O=c1[nH]c2ccccc2n1C1CCN(CCCC(c2ccc(F)cc2)c2ccc(F)cc2)CC1 [Pimozide] + Nc1ncn([C@H]2C[C@H](O)[C@@H](CO)O2)c(=O)n1 [Decitabine] (partner 2 µM)
[1]; first compound 0.08 µM
  relative viability: 0.392
[1]; first compound 0.8 µM
  relative viability: 0.466
[1]; first compound 2.53 µM
  relative viability: 0.55
[1]; first compound 8 µM
  relative viability: 0.517
[6]; first compound 0.08 µM
  relative viability: 0.307
[6]; first compound 0.253 µM
  relative viability: 0.208
[6]; first compound 0.8 µM
  relative viability: 0.211
[6]; first compound 2.53 µM
  relative viability: 0.312
[6]; first compound 8 µM
  relative viability: 0.199
[2]; first compound 0.08 µM
  relative viability: 0.698
[2]; first compound 0.253 µM
  relative viability: 0.74
[2]; first compound 0.8 µM
  relative viability: 0.715
[2]; first compound 2.53 µM
  relative viability: 0.746
[2]; first compound 8 µM
  relative viability: 0.725
[4]; first compound 0.08 µM
  relative viability: 0.679
[4]; first compound 0.253 µM
  relative viability: 0.693
[4]; first compound 0.8 µM
  relative viability: 0.615
[4]; first compound 2.53 µM
  relative viability: 0.698
[4]; first compound 8 µM
  relative viability: 0.771
[5]; first compound 0.08 µM
  relative viability: 0.451
[5]; first compound 0.253 µM
  relative viability: 0.415
[5]; first compound 2.53 µM
  relative viability: 0.548
[5]; first compound 8 µM
  relative viability: 0.472

## O=c1[nH]c2ccccc2n1C1CCN(CCCC(c2ccc(F)cc2)c2ccc(F)cc2)CC1 [Pimozide] + O=C(CCCCCCC(=O)Nc1ccccc1)NO [Vorinostat] (partner 1 µM)
[1]; first compound 0.08 µM
  relative viability: 0.315
[1]; first compound 0.8 µM
  relative viability: 0.527
[1]; first compound 2.53 µM
  relative viability: 0.228
[1]; first compound 8 µM
  relative viability: 0.347
[7]; first compound 0.08 µM
  relative viability: 0.931
[7]; first compound 0.253 µM
  relative viability: 0.923
[7]; first compound 2.53 µM
  relative viability: 0.913
[7]; first compound 8 µM
  relative viability: 0.99
[2]; first compound 0.08 µM
  relative viability: 0.778
[2]; first compound 0.253 µM
  relative viability: 0.77
[2]; first compound 0.8 µM
  relative viability: 0.658
[2]; first compound 2.53 µM
  relative viability: 0.75
[2]; first compound 8 µM
  relative viability: 0.696
[4]; first compound 0.08 µM
  relative viability: 0.848
[4]; first compound 0.253 µM
  relative viability: 0.908
[4]; first compound 0.8 µM
  relative viability: 0.673
[4]; first compound 2.53 µM
  relative viability: 0.817
[4]; first compound 8 µM
  relative viability: 0.81
[5]; first compound 0.08 µM
  relative viability: 0.655
[5]; first compound 0.253 µM
  relative viability: 0.45
[5]; first compound 2.53 µM
  relative viability: 0.509
[5]; first compound 8 µM
  relative viability: 0.3

## O=c1[nH]c2ccccc2n1C1CCN(CCCC(c2ccc(F)cc2)c2ccc(F)cc2)CC1 [Pimozide] + O=C(c1cc(Cc2n[nH]c(=O)c3ccccc23)ccc1F)N1CCN(C(=O)C2CC2)CC1 [Olaparib] (partner 8 µM)
[1]; first compound 0.08 µM
  relative viability: 0.805
[1]; first compound 0.8 µM
  relative viability: 0.522
[1]; first compound 2.53 µM
  relative viability: 0.619
[1]; first compound 8 µM
  relative viability: 1.1
[6]; first compound 0.08 µM
  relative viability: 0.237
[6]; first compound 0.253 µM
  relative viability: 0.319
[6]; first compound 0.8 µM
  relative viability: 0.271
[6]; first compound 2.53 µM
  relative viability: 0.34
[6]; first compound 8 µM
  relative viability: 0.347
[7]; first compound 0.08 µM
  relative viability: 0.84
[7]; first compound 0.253 µM
  relative viability: 0.737
[7]; first compound 0.8 µM
  relative viability: 0.873
[7]; first compound 2.53 µM
  relative viability: 0.82
[7]; first compound 8 µM
  relative viability: 0.812
[2]; first compound 0.08 µM
  relative viability: 0.438
[2]; first compound 0.253 µM
  relative viability: 0.355
[2]; first compound 0.8 µM
  relative viability: 0.397
[2]; first compound 2.53 µM
  relative viability: 0.403
[2]; first compound 8 µM
  relative viability: 0.411
[8]; first compound 0.08 µM
  relative viability: 0.983
[8]; first compound 0.253 µM
  relative viability: 0.973
[8]; first compound 0.8 µM
  relative viability: 0.931
[8]; first compound 2.53 µM
  relative viability: 0.948
[8]; first compound 8 µM
  relative viability: 0.898
[4]; first compound 0.08 µM
  relative viability: 0.569
[4]; first compound 0.253 µM
  relative viability: 0.54
[4]; first compound 0.8 µM
  relative viability: 0.751
[4]; first compound 2.53 µM
  relative viability: 0.592
[4]; first compound 8 µM
  relative viability: 0.72
[9]; first compound 0.08 µM
  relative viability: 0.352
[9]; first compound 0.253 µM
  relative viability: 0.324
[9]; first compound 0.8 µM
  relative viability: 0.374
[9]; first compound 2.53 µM
  relative viability: 0.439
[9]; first compound 8 µM
  relative viability: 0.341
[5]; first compound 0.08 µM
  relative viability: 0.955
[5]; first compound 0.253 µM
  relative viability: 0.893
[5]; first compound 2.53 µM
  relative viability: 0.839
[5]; first compound 8 µM
  relative viability: 0.892
[10]; first compound 0.08 µM
  relative viability: 0.651
[10]; first compound 0.253 µM
  relative viability: 0.568
[10]; first compound 0.8 µM
  relative viability: 0.597
[10]; first compound 2.53 µM
  relative viability: 0.575
[10]; first compound 8 µM
  relative viability: 0.425
[11]; first compound 0.08 µM
  relative viability: 0.651
[11]; first compound 0.253 µM
  relative viability: 0.695
[11]; first compound 0.8 µM
  relative viability: 0.723
[11]; first compound 2.53 µM
  relative viability: 0.626
[11]; first compound 8 µM
  relative viability: 0.676
